ChEMBL document CHEMBL1134869, “Discovery of potent, selective human granzyme B inhibitors that inhibit CTL mediated apoptosis” (Bioorg Med Chem Lett, 2002)
Residues, ends and D or L forms follow the SMILES beside them.

Key:
Granzyme B [1] = target: T1, Granzyme B (Homo sapiens, UniProt P10144); experiment: Inhibition against human granzyme B
[2] = Inhibition of CTL mediated apoptosis using humanNK-92 natural killer cells acting on target K-562 cells whose DNA had previously been labeled with [125I]-iododeoxyuridine; type: cell-based, Homo sapiens; settings: k562
Caspase-3 (Homo sapiens) = target: T2, Caspase-3 (Homo sapiens) (UniProt P42574); experiment: Compound was tested for its inhibition against Caspase-3 at 50 uM; Not active
T2 sequence (whole entry): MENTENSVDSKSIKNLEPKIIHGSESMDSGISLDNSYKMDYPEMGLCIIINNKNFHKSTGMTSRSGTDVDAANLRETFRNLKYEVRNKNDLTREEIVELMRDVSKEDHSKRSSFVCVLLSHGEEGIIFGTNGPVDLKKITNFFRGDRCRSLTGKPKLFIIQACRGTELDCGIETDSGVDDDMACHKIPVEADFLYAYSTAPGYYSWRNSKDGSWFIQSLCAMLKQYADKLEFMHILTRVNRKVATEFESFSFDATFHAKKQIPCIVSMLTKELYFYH

Granzyme B [3] = target: T1, Granzyme B; experiment: Compound was tested for its inhibition against human granzyme B; Not active

T1 sequence (P10144 whole entry): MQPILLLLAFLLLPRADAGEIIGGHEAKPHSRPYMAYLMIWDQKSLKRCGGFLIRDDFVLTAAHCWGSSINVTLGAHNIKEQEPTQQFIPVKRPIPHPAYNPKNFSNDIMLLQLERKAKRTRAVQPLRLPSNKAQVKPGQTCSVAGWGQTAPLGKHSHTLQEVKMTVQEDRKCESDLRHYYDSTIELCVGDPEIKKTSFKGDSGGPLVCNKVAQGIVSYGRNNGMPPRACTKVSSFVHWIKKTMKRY

| SMILES | Ki (Granzyme B [1]) [nM] | also measured |
| --- | --- | --- |
| CC[C@H](C)[C@@H](C(=O)N[C@H]1CCc2cccc3c2N(C1=O)[C@H](C(=O)N[C@@H](CC(=O)O)C(=O)CSCc1ccc(F)cc1)C3)N(C)C(C)=O | 2300 |  |
| CC[C@H](C)[C@@H](C(=O)N[C@H]1CCc2cccc3c2N(C1=O)[C@H](C(=O)NCCC(=O)O)C3)N(C)C(C)=O | 580 | inhibition (Caspase-3 (Homo sapiens)): < 50% |
| CC[C@H](C)[C@@H](C(=O)N[C@H]1CCc2cccc3c2N(C1=O)[C@H](C(=O)NCc1nc[nH]n1)C3)N(C)C(C)=O |  | Ki (Granzyme B [3]): Not Active |
| CC[C@H](C)[C@H](NC(C)=O)C(=O)N[C@H]1CC[C@H]2CC[C@@H](C(=O)N[C@H](C=O)CC(=O)O)N2C1=O | 122 |  |
| CC[C@H](C)[C@@H](C(=O)N[C@H]1CCc2cccc3c2N(C1=O)[C@H](C(=O)NCc1cc[nH]n1)C3)N(C)C(C)=O |  | Ki (Granzyme B [3]): Not Active |
| CC[C@H](C)[C@H](NC(C)=O)C(=O)NCC(=O)N1CCC[C@H]1C(=O)N[C@H](C=O)CC(=O)O (Ac-IGPD-aldehyde) | 270 |  |
| CC[C@H](C)[C@@H](C(=O)N[C@H]1CCc2cccc3c2N(C1=O)[C@H](C(=O)N[C@@H](CC(=O)O)C(=O)C(=O)OC)C3)N(C)C(C)=O | 16 |  |
| CC[C@H](C)[C@H](NC(C)=O)C(=O)Nc1cccn(CC(=O)N[C@H](C=O)CC(=O)O)c1=O | 133 |  |
| CC[C@H](C)[C@@H](C(=O)N[C@H]1CCc2cccc3c2N(C1=O)[C@H](C(=O)N[C@@H](CC(=O)O)C(=O)c1nnc(-c2ccccc2)o1)C3)N(C)C(C)=O | 7 |  |
| CC[C@H](C)[C@@H](C(=O)N[C@H]1CCc2cccc3c2N(C1=O)[C@H](C(=O)NCc1cn[nH]c1)C3)N(C)C(C)=O |  | Ki (Granzyme B [3]): Not Active |

Now from value to compound, other results behind:

| Ki (Granzyme B [1]) [nM] | SMILES | also measured |
| --- | --- | --- |
| 13 | CC[C@H](C)[C@H](NC(=O)Cc1ccccc1)C(=O)N[C@H]1CCc2cccc3c2N(C1=O)[C@H](C(=O)NCc1cn[nH]c1)C3 | Ki [2]: 6.3 nM |
| 85 | CC[C@H](C)[C@@H](C(=O)N[C@H]1CCc2cccc3c2N(C1=O)[C@H](C(=O)N[C@@H](CC(=O)O)C(=O)c1nc2ccccc2s1)C3)N(C)C(C)=O |  |
| 38 | CC[C@H](C)[C@@H](C(=O)N[C@H]1CCc2cccc3c2N(C1=O)[C@H](C(=O)NCc1cn[nH]n1)C3)N(C)C(C)=O | Ki [2]: 30 nM |
| 7 | CC[C@H](C)[C@H](NC(=O)Cc1csc2ccccc12)C(=O)N[C@H]1CCc2cccc3c2N(C1=O)[C@H](C(=O)NCc1cn[nH]c1)C3 | Ki [2]: 3.1 nM |
| 360 | CC[C@H](C)[C@@H](C(=O)N[C@H]1CCc2cccc3c2N(C1=O)[C@H](C(=O)NCc1cc(=O)[nH]o1)C3)N(C)C(C)=O |  |
| 74 | CC[C@H](C)[C@@H](C(=O)N[C@H]1CCc2cccc3c2N(C1=O)[C@H](C(=O)NCc1nnn[nH]1)C3)N(C)C(C)=O |  |
| 80 | CC[C@H](C)[C@H](NC(C)=O)C(=O)N[C@@H](CCC(=O)O)C(=O)N1CCC[C@H]1C(=O)N[C@H](C=O)CC(=O)O (Ac-IEPD-aldehyde) |  |
| 13 | CC[C@H](C)[C@H](NC(C)=O)C(=O)NCC(=O)N1c2ccccc2C[C@H]1C(=O)N[C@H](C=O)CC(=O)O |  |
| 75 | CC(C)[C@@H](C(=O)N[C@H]1CCc2cccc3c2N(C1=O)[C@H](C(=O)NCc1cn[nH]n1)C3)c1ccccn1 | Ki [2]: 30 nM |
